From US12252524B2, “GIP/GLP1 co-agonist compounds” (Eli Lilly and Company, priority 2018, dated 2025)
Numbered stars: 1 amine (or outer) side, 2 acyl side, 3 side chain; on linkers, the order of the positions; unused ones are H or OH. Square brackets hold non-standard residues; d marks the D form. Side chains are listed from the residue outwards. Peptide text beside a SMILES is read from it. * marks the point of attachment. C20 diacid = O=C(O)CCCCCCCCCCCCCCCCCCC(=O)*; αMePhe(2-F) = C[C@](N)(Cc1ccccc1F)C(=O)O; γGlu = O=C(O)[C@H](CCC(=O)[*:2])N[*:1]; αMeF = C[C@](N)(Cc1ccccc1)C(=O)O; αMeL = CC(C)C[C@](C)(N)C(=O)O; AEEA = NCCOCCOCC(=O)O; Aib = CC(C)(N)C(=O)O

How the values were obtained:
[1] = target: T1, human Gcg receptor (Homo sapiens, UniProt P47871); assay: [125I]-Glucagon binding (SPA), human Gcg receptor; conditions: read-out: hGLcgR Ki, nM (SEM, n)
T1 construct: expressed in transfected cells; crude membranes
T1 sequence (P47871 26-477): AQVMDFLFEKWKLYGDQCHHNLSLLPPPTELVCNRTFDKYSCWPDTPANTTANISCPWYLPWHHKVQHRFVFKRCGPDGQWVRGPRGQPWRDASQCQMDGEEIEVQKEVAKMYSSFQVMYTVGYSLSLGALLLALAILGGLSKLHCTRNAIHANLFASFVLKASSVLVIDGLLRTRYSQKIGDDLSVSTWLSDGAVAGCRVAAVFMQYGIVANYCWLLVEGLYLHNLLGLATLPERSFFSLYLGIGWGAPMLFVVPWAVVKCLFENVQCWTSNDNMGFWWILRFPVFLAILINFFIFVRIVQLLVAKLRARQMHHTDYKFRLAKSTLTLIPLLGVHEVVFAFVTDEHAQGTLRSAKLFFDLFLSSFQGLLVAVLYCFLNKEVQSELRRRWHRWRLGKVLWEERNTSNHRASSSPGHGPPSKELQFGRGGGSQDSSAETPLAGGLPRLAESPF
How it was run: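 Scintillation counts are taken after membranes and WGA beads incubate and settle for 12 hours at room temperature. Buffer is 25 mM HEPES, pH 7.4, with CaCl2, MgCl2, bacitracin and Tween-20. Ki values, from four-parameter IC50 fits, are geometric means over independent days.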

[2] = target: T2, human GIP receptor (Homo sapiens, UniProt P48546); assay: [125I]-GIP binding (SPA), human GIP receptor; conditions: read-out: hGIPR Ki, nM (SEM, n)
T2 construct: expressed in transfected cells; crude membranes
T2 sequence (P48546 22-466): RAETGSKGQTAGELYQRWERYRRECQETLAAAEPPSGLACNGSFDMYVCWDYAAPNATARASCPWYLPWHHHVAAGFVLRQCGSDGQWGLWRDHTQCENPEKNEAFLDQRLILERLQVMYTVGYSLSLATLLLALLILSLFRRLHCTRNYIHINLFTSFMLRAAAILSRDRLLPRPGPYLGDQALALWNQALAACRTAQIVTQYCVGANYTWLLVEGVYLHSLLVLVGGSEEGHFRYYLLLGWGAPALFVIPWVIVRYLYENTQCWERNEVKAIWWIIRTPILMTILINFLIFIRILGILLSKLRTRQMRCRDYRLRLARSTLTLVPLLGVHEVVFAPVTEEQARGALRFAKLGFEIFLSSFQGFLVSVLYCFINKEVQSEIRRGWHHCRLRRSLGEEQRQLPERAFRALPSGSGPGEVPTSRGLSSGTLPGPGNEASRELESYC

[3] = target: human GLP-1 receptor (GLP-1R) (Homo sapiens, UniProt P43220); assay: cAMP pharmacological functional assay in presence of casein, hGLP-1R; type: cell-based; conditions: HEK293 cells expressing hGLP-1R, 0.1% Casein, geometric mean; read-out: hGLP1R cAMP Rel EC50 nM (SEM, n)
Chain of human GLP-1 receptor (GLP-1R) (P43220 24-463): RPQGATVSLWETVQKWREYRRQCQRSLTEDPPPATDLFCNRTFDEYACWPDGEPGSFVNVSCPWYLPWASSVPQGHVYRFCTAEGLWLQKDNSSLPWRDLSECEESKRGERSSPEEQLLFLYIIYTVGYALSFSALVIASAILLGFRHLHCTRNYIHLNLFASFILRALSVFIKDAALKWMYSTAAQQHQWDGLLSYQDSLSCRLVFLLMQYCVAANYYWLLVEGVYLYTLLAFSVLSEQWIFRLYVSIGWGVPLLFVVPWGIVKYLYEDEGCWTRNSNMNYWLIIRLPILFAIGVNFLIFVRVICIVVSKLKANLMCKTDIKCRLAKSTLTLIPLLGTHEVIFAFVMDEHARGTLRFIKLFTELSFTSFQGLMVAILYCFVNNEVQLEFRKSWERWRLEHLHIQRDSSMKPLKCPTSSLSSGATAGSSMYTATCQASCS

[4] = target: T3, gastric inhibitory peptide receptor (GIPR) (Homo sapiens, UniProt P48546); assay: cAMP pharmacological functional assay in presence of casein, hGIPR; type: cell-based; conditions: HEK293 cells expressing hGIPR, 0.1% Casein, geometric mean; read-out: hGIPR cAMP Rel EC50 nM (SEM, n)
T3 sequence (P48546 22-466): T2 sequence (P48546 22-466)

[5] = target: human GLP-1R (Homo sapiens, UniProt P43220); assay: [125I]-GLP-1 binding (SPA), human GLP-1 receptor; set-up: expressed in transfected cells; crude membranes; conditions: read-out: hGLP1R Ki, (nM) (SEM, n)
Chain of human GLP-1R (P43220 24-463): as above
How it was run: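 Crude-membrane binding assay; one membrane prep included 1 mM MgCl2 and 25 units/ml DNAse I during lysis. Assay buffer at pH 7.4 contains 0.1% (w/v) bacitracin and 0.003% (w/v) TWEEN-20. Ki is reported as geometric mean.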

Structure (SMILES)	Ki [1]	Ki [2]	EC50 [3]	EC50 [4]	Ki [5]
CC[C@H](C)[C@H](NC(=O)[C@H](CC(C)C)NC(=O)[C@H](Cc1ccc(O)cc1)NC(=O)[C@H](CCC(=O)O)NC(=O)[C@@H](NC(=O)[C@H](Cc1ccccc1)NC(=O)[C@H](C)NC(=O)C(C)(C)NC(=O)[C@H](CCC(N)=O)NC(=O)[C@H](C)NC(=O)[C@H](CCCCNC(=O)COCCOCCNC(=O)COCCOCCNC(=O)CC[C@H](NC(=O)CCCCCCCCCCCCCCCCCCC(=O)O)C(=O)O)NC(=O)[C@H](CCC(=O)O)NC(=O)[C@H](CC(=O)O)NC(=O)[C@H](CC(C)C)NC(=O)[C@](C)(CC(C)C)NC(=O)[C@@H](NC(=O)[C@H](CO)NC(=O)[C@H](Cc1ccc(O)cc1)NC(=O)[C@H](CC(=O)O)NC(=O)[C@H](CO)NC(=O)[C@@H](NC(=O)[C@](C)(Cc1ccccc1)NC(=O)[C@@H](NC(=O)CNC(=O)[C@H](CCC(=O)O)NC(=O)C(C)(C)NC(=O)[C@@H](N)Cc1ccccc1)[C@@H](C)O)[C@@H](C)O)[C@@H](C)CC)[C@@H](C)CC)C(=O)N[C@@H](CCC(=O)O)C(=O)NCC(=O)NCC(=O)N1CCC[C@H]1C(=O)N[C@@H](CO)C(=O)N[C@@H](CO)C(=O)NCC(=O)N[C@@H](C)C(=O)N1CCC[C@H]1C(=O)N1CCC[C@H]1C(=O)N1CCC[C@H]1C(=O)N[C@@H](CO)C(N)=O [Example 119] (H-F[Aib]EGT[αMeF]TSDYSI[αMeL]LDEK([AEEA-AEEA-γGlu-C20 diacid])AQ[Aib]AFIEYLIEGGPSSGAPPPS-NH2)	30.6 nM	0.0925 nM	0.0913 nM	0.216 nM	9.87 nM
CC[C@H](C)[C@H](NC(=O)[C@H](CC(C)C)NC(=O)[C@H](Cc1ccc(O)cc1)NC(=O)[C@H](Cc1c[nH]cn1)NC(=O)[C@@H](NC(=O)[C@H](Cc1ccccc1)NC(=O)[C@H](CCC(=O)O)NC(=O)C(C)(C)NC(=O)[C@H](CCC(N)=O)NC(=O)[C@H](C)NC(=O)[C@H](CCCCNC(=O)COCCOCCNC(=O)COCCOCCNC(=O)CC[C@H](NC(=O)CCCCCCCCCCCCCCCCCCC(=O)O)C(=O)O)NC(=O)[C@H](CCC(=O)O)NC(=O)[C@H](CC(=O)O)NC(=O)[C@H](CC(C)C)NC(=O)[C@](C)(CC(C)C)NC(=O)[C@@H](NC(=O)[C@H](CO)NC(=O)[C@H](Cc1ccc(O)cc1)NC(=O)[C@H](CC(=O)O)NC(=O)[C@H](CO)NC(=O)[C@@H](NC(=O)[C@](C)(Cc1ccccc1F)NC(=O)[C@@H](NC(=O)CNC(=O)[C@H](CCC(=O)O)NC(=O)C(C)(C)NC(=O)[C@@H](N)Cc1ccc(O)cc1)[C@@H](C)O)[C@@H](C)O)[C@@H](C)CC)[C@@H](C)CC)C(=O)N[C@@H](CCC(=O)O)C(=O)NCC(=O)NCC(=O)N1CCC[C@H]1C(=O)N[C@@H](CO)C(=O)N[C@@H](CO)C(=O)NCC(=O)N[C@@H](C)C(=O)N1CCC[C@H]1C(=O)N1CCC[C@H]1C(=O)N1CCC[C@H]1C(=O)N[C@@H](CO)C(N)=O [Example 153] (H-Y[Aib]EGT[αMePhe(2-F)]TSDYSI[αMeL]LDEK([AEEA-AEEA-γGlu-C20 diacid])AQ[Aib]EFIHYLIEGGPSSGAPPPS-NH2; N-terminus assumed)	43.8 nM	0.0578 nM	0.0904 nM	0.0634 nM	22.2 nM
